The results in this text go back to US20250368635A1, “HETEROARYL DERIVATIVE COMPOUND, AND USES THEREOF” (VORONOI, INC., priority 2022, published 2025).

This assay deals with Ba/F3 cells expressing EGFR Del19/C797S (EGFR DC). The assay can be described thus: Inhibition of proliferation of Ba/F3 cells expressing EGFR Del19/C797S (CellTiter-Glo, 72 h). To be noted: Mus musculus, BaF3, 72 hours treatment. Format: cell-based. The procedure:
The following experiment was performed to evaluate the inhibitory activity of the compounds according to the present invention on the proliferation of Ba/F3 cells expressing EGFR Del19/C797S (EGFR DC) and EGFR L858R/C797S (EGFR LC) mutations.
Ba/F3 cells were cultured using medium (RPMI-1640) containing 10% fetal bovine serum (FBS) and 5 ng/ml IL-3 (R&D Systems). The transduced Ba/F3 cells were cultured by adding 1 μg/ml puromycin (Invitrogen) to the same medium.
24 hours prior to treatment with compounds, 3,000 to 5,000 cells were seeded on a well plate (white clear bottom 96 well plate, Corning). The compounds were diluted in dimethyl sulfoxide (3-fold dilution, total of 12 concentrations) and injected at 1 μl each so that the final concentration was 0.2 nM to 5 μM. After 72 hours post treatment with compounds, living cells were stored at room temperature for 10 minutes using CellTiter-Glo luminescent cell-viability reagent (Promega), and the luminescence intensity thereof was measured using a reader (Synergy Neo, Biotek). Each test was repeated three times. The result values were calculated as a cell growth rate (%) compared to the control group. A graph was created using the GraphPad Prism version 8.3.0 program, and GI50 values were calculated.
In general terms: In ATP-based viability assays light output follows the ATP content of the culture.

With `COc1cc(N2CCOCC2)c(-c2cn(C)nc2F)cc1Nc1cc(N2OCC[C@@H]2c2cccc(F)c2F)ncn1` [Example 16, (R)-6-(3-(2,3-difluorophenyl)isoxazolidin-2-yl)-N-(5-(3-fluoro-1-methyl-1H-pyrazol-4-yl)-2-methoxy-4-morpholinophenyl)pyrimidin-4-amine], the GI50 (usually the concentration at which growth is held to half of that of the control) is < 100 nM.

As for `COc1cc(N2CCC(C3COC3)CC2)c(-c2cn(C)nc2F)cc1Nc1cc(N2OCC[C@@H]2c2cccc(F)c2F)ncn1` [Example 17, (R)-6-(3-(2,3-difluorophenyl)isoxazolidin-2-yl)-N-(5-(3-fluoro-1-methyl-1H-pyrazol-4-yl)-2-methoxy-4-(4-(oxetan-3-yl)piperidin-1-yl)phenyl)pyrimidin-4-amine], the concentration for 50% growth inhibition (GI50) was in the range of 100 to 1000 nM.

Take `COc1cc(N2CCC3(CC2)CC(N(C)C)C3)c(-c2cnn(C)c2)cc1Nc1cc(N2OCC[C@@H]2c2cccc(F)c2F)ncn1` [Example 31, (R)-7-(4-((6-(3-(2,3-difluorophenyl)isoxazolidin-2-yl)pyrimidin-4-yl)amino)-5-methoxy-2-(1-methyl-1H-pyrazol-4-yl)phenyl)-N,N-dimethyl-7-azaspiro[3.5]nonan-2-amine]: the GI50 was < 100 nM.

As for `COc1cc(N2CCC3(CCC(OC)CC3)CC2)c(-c2cnn(C)c2)cc1Nc1cc(N2OCC[C@@H]2c2cccc(F)c2F)ncn1` [Example 42, (R)-6-(3-(2,3-difluorophenyl)isoxazolidin-2-yl)-N-(2-methoxy-4-(9-methoxy-3-azaspiro[5.5]undecan-3-yl)-5-(1-methyl-1H-pyrazol-4-yl)phenyl)pyrimidin-4-amine], the GI50 lay within 100 to 1000 nM.

For `COc1cc(N2CCOC3(CC3)C2)c(-c2cnn(C)c2)cc1Nc1cc(N2OCC[C@@H]2c2cccc(F)c2F)ncn1` [Example 43, (R)-6-(3-(2,3-difluorophenyl)isoxazolidin-2-yl)-N-(2-methoxy-5-(1-methyl-1H-pyrazol-4-yl)-4-(4-oxa-7-azaspiro[2.5]octan-7-yl)phenyl)pyrimidin-4-amine], the 50% growth inhibitory concentration (GI50) was in the range of 100 to 1000 nM.

As to `COc1cc(N2C3COCC2C3)c(-c2cnn(C)c2)cc1Nc1cc(N2OCC[C@@H]2c2cccc(F)c2F)ncn1` [Example 44, N-(4-(3-oxa-6-azabicyclo[3.1.1]heptan-6-yl)-2-methoxy-5-(1-methyl-1H-pyrazol-4-yl)phenyl)-6-((R)-3-(2,3-difluorophenyl)isoxazolidin-2-yl)pyrimidin-4-amine], the 50% growth inhibitory concentration (GI50) fell in the range of 100 to 1000 nM.

For the compound `COc1cc(N2CCC3(CCOCC3)C2)c(-c2cnn(C)c2)cc1Nc1cc(N2OCC[C@@H]2c2cccc(F)c2F)ncn1` [Example 45, (R)-6-(3-(2,3-difluorophenyl)isoxazolidin-2-yl)-N-(2-methoxy-5-(1-methyl-1H-pyrazol-4-yl)-4-(8-oxa-2-azaspiro[4.5]decan-2-yl)phenyl)pyrimidin-4-amine], the concentration for 50% growth inhibition (GI50) is 100 to 1000 nM.

As to `COc1cc(N2CCC(N3CCOCC3)CC2)c(-c2cnn(C)c2)cc1Nc1cc(N2OCC[C@@H]2c2cccc(F)c2F)ncn1` [Example 46, (R)-6-(3-(2,3-difluorophenyl)isoxazolidin-2-yl)-N-(2-methoxy-5-(1-methyl-1H-pyrazol-4-yl)-4-(4-morpholinopiperidin-1-yl)phenyl)pyrimidin-4-amine], the 50% growth inhibitory concentration (GI50) was < 100 nM.

`COc1cc2c(cc1Nc1cc(N3OCC[C@@H]3c3cccc(F)c3F)ncn1)-c1cnn(C)c1CCN2C(C)C` [Example 47, (R)-N-(6-(3-(2,3-difluorophenyl)isoxazolidin-2-yl)pyrimidin-4-yl)-6-isopropyl-8-methoxy-3-methyl-3,4,5,6-tetrahydrobenzo[b]pyrazolo [4,3-d]azepin-9-amine]: the GI50 lay within 100 to 1000 nM.

Regarding `COc1cc(N2CCC(N3CC(F)(F)C3)CC2)c(-c2cnn(C)c2)cc1Nc1cc(N2OCC[C@@H]2c2cccc(F)c2F)ncn1` [Example 55, (R)-N-(4-(4-(3,3-difluoroazetidin-1-yl)piperidin-1-yl)-2-methoxy-5-(1-methyl-1H-pyrazol-4-yl)phenyl)-6-(3-(2,3-difluorophenyl)isoxazolidin-2-yl)pyrimidin-4-amine], the GI50 is < 100 nM.

With `COc1cc(N2CCC3(CC2)CCN(C2COC2)CC3)c(-c2cnn(C)c2)cc1Nc1cc(N2OCC[C@@H]2c2cccc(F)c2F)ncn1` [Example 56, (R)-6-(3-(2,3-difluorophenyl)isoxazolidin-2-yl)-N-(2-methoxy-5-(1-methyl-1H-pyrazol-4-yl)-4-(9-(oxetan-3-yl)-3,9-diazaspiro[5.5]undecan-3-yl)phenyl)pyrimidin-4-amine], the GI50 was < 100 nM.

With `COc1cc(C23CCOCC2C3)c(-c2cnn(C)c2)cc1Nc1cc(N2OCC[C@@H]2c2cccc(F)c2F)ncn1` (stereo partly drawn) [Example 59, N-(4-(3-oxabicyclo[4.1.0]heptan-6-yl)-2-methoxy-5-(1-methyl-1H-pyrazol-4-yl)phenyl)-6-((R)-3-(2,3-difluorophenyl)isoxazolidin-2-yl)pyrimidin-4-amine], the GI50 was 100 to 1000 nM.

With `COc1cc(C23CCOCC2C3(F)F)c(-c2cnn(C)c2)cc1Nc1cc(N2OCC[C@@H]2c2cccc(F)c2F)ncn1` (stereo partly drawn) [Example 60, N-(4-(7,7-difluoro-3-oxabicyclo[4.1.0]heptan-6-yl)-2-methoxy-5-(1-methyl-1H-pyrazol-4-yl)phenyl)-6-((R)-3-(2,3-difluorophenyl)isoxazolidin-2-yl)pyrimidin-4-amine], the GI50 is 100 to 1000 nM.

`COc1cc(N2CCC(N3CCC(F)(F)CC3)CC2)c(-c2cnn(C)c2)cc1Nc1cc(N2OCC[C@@H]2c2cccc(F)c2F)ncn1` [Example 61, (R)-N-(4-(4,4-difluoro-[1,4′-bipiperidin]-1′-yl)-2-methoxy-5-(1-methyl-1H-pyrazol-4-yl)phenyl)-6-(3-(2,3-difluorophenyl)isoxazolidin-2-yl)pyrimidin-4-amine]: the GI50 was 100 to 1000 nM.

As for `COc1cc(N2CCC3CCN(C)C3C2)c(-c2cnn(C)c2)cc1Nc1cc(N2OCC[C@@H]2c2cccc(F)c2F)ncn1` (stereo partly drawn) [Example 62, 6-((R)-3-(2,3-difluorophenyl)isoxazolidin-2-yl)-N-(2-methoxy-5-(1-methyl-1H-pyrazol-4-yl)-4-(1-methyloctahydro-6H-pyrrolo[2,3-c]pyridin-6-yl)phenyl)pyrimidin-4-amine], the GI50 was < 100 nM.

Consider `COc1cc(N2CCC(CN3CCC(CC(F)(F)F)C3)CC2)c(-c2cnn(C)c2)cc1Nc1cc(N2OCC[C@@H]2c2cccc(F)c2F)ncn1` (stereo partly drawn) [Example 63, 6-((R)-3-(2,3-difluorophenyl)isoxazolidin-2-yl)-N-(2-methoxy-5-(1-methyl-1H-pyrazol-4-yl)-4-(4-((3-(2,2,2-trifluoroethyl)pyrrolidin-1-yl)methyl)piperidin-1-yl)phenyl)pyrimidin-4-amine], for which the concentration for 50% growth inhibition (GI50) was < 100 nM.

In the case of `COc1cc(N2CCC(N3CC[C@@H](OC)[C@@H](F)C3)CC2)c(-c2cnn(C)c2)cc1Nc1cc(N2OCC[C@@H]2c2cccc(F)c2F)ncn1` [Example 64, 6-((R)-3-(2,3-difluorophenyl)isoxazolidin-2-yl)-N-(4-((3,4R)-3-fluoro-4-methoxy-[1,4′-bipiperidin]-1′-yl)-2-methoxy-5-(1-methyl-1H-pyrazol-4-yl)phenyl)pyrimidin-4-amine], the 50% growth inhibitory concentration (GI50) lay within 100 to 1000 nM.

In the case of `COc1cc(N2CC[C@@H](OC)[C@@H](F)C2)c(-c2cnn(C)c2)cc1Nc1cc(N2OCC[C@@H]2c2cccc(F)c2F)ncn1` [Example 66, 6-((R)-3-(2,3-difluorophenyl)isoxazolidin-2-yl)-N-(4-((3,4R)-3-fluoro-4-methoxypiperidin-1-yl)-2-methoxy-5-(1-methyl-1H-pyrazol-4-yl)phenyl)pyrimidin-4-amine], the GI50 was 100 to 1000 nM.

Regarding `COc1cc(N2CC[C@H](OC)[C@H](F)C2)c(-c2cnn(C)c2)cc1Nc1cc(N2OCC[C@@H]2c2cccc(F)c2F)ncn1` [Example 67, 6-((R)-3-(2,3-difluorophenyl)isoxazolidin-2-yl)-N-(4-((3R,4S)-3-fluoro-4-methoxypiperidin-1-yl)-2-methoxy-5-(1-methyl-1H-pyrazol-4-yl)phenyl)pyrimidin-4-amine], the concentration for 50% growth inhibition (GI50) is < 100 nM.

For `COc1cc(N2CCC(N3CC[C@H](OC)C3)CC2)c(-c2cnn(C)c2)cc1Nc1cc(N2OCC[C@@H]2c2cccc(F)c2F)ncn1` [Example 70, 6-((R)-3-(2,3-difluorophenyl)isoxazolidin-2-yl)-N-(2-methoxy-4-(4-((S)-3-methoxypyrrolidin-1-yl)piperidin-1-yl)-5-(1-methyl-1H-pyrazol-4-yl)phenyl)pyrimidin-4-amine], the GI50 was in the range of 100 to 1000 nM.

Take `COc1cc(N2CCC(N3CC[C@H](F)C3)CC2)c(-c2cnn(C)c2)cc1Nc1cc(N2OCC[C@@H]2c2cccc(F)c2F)ncn1` [Example 71, 6-((R)-3-(2,3-difluorophenyl)isoxazolidin-2-yl)-N-(4-(4-((S)-3-fluoropyrrolidin-1-yl)piperidin-1-yl)-2-methoxy-5-(1-methyl-1H-pyrazol-4-yl)phenyl)pyrimidin-4-amine]: the 50% growth inhibitory concentration (GI50) fell in the range of 100 to 1000 nM.

In the case of `COc1cc(N2CCC(N3CCOC(C(F)(F)F)C3)CC2)c(-c2cnn(C)c2)cc1Nc1cc(N2OCC[C@@H]2c2cccc(F)c2F)ncn1` (stereo partly drawn) [Example 73, 6-((R)-3-(2,3-difluorophenyl)isoxazolidin-2-yl)-N-(2-methoxy-5-(1-methyl-1H-pyrazol-4-yl)-4-(4-(2-(trifluoromethyl)morpholino)piperidin-1-yl)phenyl)pyrimidin-4-amine], the GI50 fell in the range of 100 to 1000 nM.
